# Reference: US10765114B2, “4-amino-6-(pyridyl and 2-substitutedphenyl)-picolinates and 6-amino-2-(pyridyl and 2-substitutedphenyl)-pyrimidine-4-carboxylates and their use as herbicides” (Dow AgroSciences LLC, priority 2013, dated 2020)
# Like-named read-outs stand apart in the source and are kept apart here.
# Key:
# [1] = system: Key Grass and Sedge Weeds as well as Grass Crops; test: Post-Emergent Test II (Table 6); format: in vivo; settings: post-emergence, 336 h, 14 days after application; for pest or weed control at 70 g/ha: 70 g ai/ha; for pest or weed control at 140 g/ha: 140 g ai/ha
# How it was run: (§1)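 Plants grown in a greenhouse (~15 h photoperiod, 23-29° C day) to first or second true leaf stage were sprayed post-emergence at 187 L/ha with compound in acetone/DMSO-based aqueous spray containing crop oil concentrate and surfactant, applied at a high rate plus ½× to 1/16× serial rates. Injury was scored visually 14 days later, 0-100% versus untreated plants.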
# [2] = system: Key Broadleaf Weed and Crop Species; test: Post-Emergent Test II (Table 5); format: in vivo; settings: post-emergence, 336 h; for pest or weed control at 70 g/ha: application rate 70 (kg ai/ha; footnote: g ai/ha); for pest or weed control at 140 g/ha: application rate 140 (kg ai/ha; footnote: g ai/ha)
# How it was run: as §1
# [3] = CYPSS, read-out: Visual Growth Reduction (%) 14 Days After Application CYPSS
# [4] = DIGSA: crabgrass (Digitaria sanguinalis), read-out: Visual Growth Reduction (%) 14 Days After Application DIGSA
# [5] = ECHSS, read-out: Visual Growth Reduction (%) 14 Days After Application ECHSS
# [6] = ORYSS (crop), read-out: Visual Growth Reduction (%) 14 Days After Application ORYSS
# [7] = SETFA: giant foxtail (Setaria faberi), read-out: Visual Growth Reduction (%) 14 Days After Application SETFA
# [8] = SORVU: grain sorghum (Sorghum vulgare), read-out: Visual Growth Reduction (%) 14 Days After Application SORVU
# [9] = TRZSS (crop), read-out: Visual Growth Reduction (%) 14 Days After Application TRZSS
# [10] = ZEAMX: maize, corn (Zea mays), read-out: Visual Growth Reduction (%) 14 Days After Application ZEAMX
# [11] = Abutilon theophrasti, ABUTH: velvetleaf (Abutilon theophrasti), read-out: Visual Growth Reduction (%) 14 Days After Application ABUTH
# [12] = Amaranthus retroflexus, AMARE: redroot pigweed (Amaranthus retroflexus), read-out: Visual Growth Reduction (%) 14 Days After Application AMARE
# [13] = Brassica napus, BRSSS: oilseed rape, canola (Brassica napus), read-out: Visual Growth Reduction (%) 14 Days After Application BRSSS
# [14] = Chenopodium album, CHEAL: lambsquarters (Chenopodium album), read-out: Visual Growth Reduction (%) 14 Days After Application CHEAL
# [15] = Euphorbia heterophylla, EPHHL: wild poinsettia (Euphorbia heterophylla), read-out: Visual Growth Reduction (%) 14 Days After Application EPHHL
# [16] = Helianthus annuus, HELAN: sunflower (Helianthus annuus), read-out: Visual Growth Reduction (%) 14 Days After Application HELAN
# [17] = Viola tricolor, VIOTR: wild pansy (Viola tricolor), read-out: Visual Growth Reduction (%) 14 Days After Application VIOTR
Structure (SMILES),"pest or weed control at 70 g/ha [1, 3] [%]","pest or weed control at 140 g/ha [1, 3] [%]","pest or weed control at 70 g/ha [1, 4] [%]","pest or weed control at 140 g/ha [1, 4] [%]","pest or weed control at 70 g/ha [1, 5] [%]","pest or weed control at 140 g/ha [1, 5] [%]","pest or weed control at 70 g/ha [1, 6] [%]","pest or weed control at 140 g/ha [1, 6] [%]","pest or weed control at 70 g/ha [1, 7] [%]","pest or weed control at 140 g/ha [1, 7] [%]","pest or weed control at 70 g/ha [1, 8] [%]","pest or weed control at 140 g/ha [1, 8] [%]","pest or weed control at 70 g/ha [1, 9] [%]","pest or weed control at 140 g/ha [1, 9] [%]","pest or weed control at 70 g/ha [1, 10] [%]","pest or weed control at 140 g/ha [1, 10] [%]","pest or weed control at 70 g/ha [2, 11] [%]","pest or weed control at 140 g/ha [2, 11] [%]","pest or weed control at 70 g/ha [2, 12] [%]","pest or weed control at 140 g/ha [2, 12] [%]",also measured
Cc1c(-c2nc(C(=O)O)c(Cl)c(N)c2F)ccc(Cl)c1F [Compound 67],0 to 29,0 to 29,0 to 29,0 to 29,0 to 29,0 to 29,0 to 29,0 to 29,0 to 29,0 to 29,0 to 29,0 to 29,0 to 29,0 to 29,0 to 29,0 to 29,85 to 94,85 to 94,95 to 100,95 to 100,"pest or weed control at 70 g/ha [2, 13]: 95 to 100%; pest or weed control at 140 g/ha [2, 13]: 95 to 100%; pest or weed control at 70 g/ha [2, 14]: 95 to 100%; pest or weed control at 140 g/ha [2, 14]: 95 to 100%; pest or weed control at 70 g/ha [2, 15]: 0 to 29%; pest or weed control at 140 g/ha [2, 15]: 0 to 29%; pest or weed control at 70 g/ha [2, 16]: 95 to 100%; pest or weed control at 140 g/ha [2, 16]: 95 to 100%; pest or weed control at 70 g/ha [2, 17]: 0 to 29%; pest or weed control at 140 g/ha [2, 17]: 0 to 29%"
"C#Cc1c(-c2cc(N)c(Cl)c(C(=O)OC)n2)ccc(Cl)c1F [Compound 75, methyl 4-amino-3-chloro-6-(4-chloro-2-ethynyl-3-fluorophenyl)picolinate]",0 to 29,0 to 29,0 to 29,0 to 29,0 to 29,0 to 29,0 to 29,0 to 29,0 to 29,0 to 29,0 to 29,0 to 29,0 to 29,0 to 29,0 to 29,0 to 29,0 to 29,0 to 29,0 to 29,0 to 29,"pest or weed control at 70 g/ha [2, 13]: 0 to 29%; pest or weed control at 140 g/ha [2, 13]: 0 to 29%; pest or weed control at 70 g/ha [2, 14]: 75 to 84%; pest or weed control at 140 g/ha [2, 14]: 75 to 84%; pest or weed control at 70 g/ha [2, 15]: 0 to 29%; pest or weed control at 140 g/ha [2, 15]: 0 to 29%; pest or weed control at 70 g/ha [2, 16]: 0 to 29%; pest or weed control at 140 g/ha [2, 16]: 0 to 29%; pest or weed control at 70 g/ha [2, 17]: 0 to 29%; pest or weed control at 140 g/ha [2, 17]: 0 to 29%"
"COC(=O)c1nc(-c2ccc(Cl)c(F)c2CF)cc(N)c1Cl [Compound 78, methyl 4-amino-3-chloro-6-(4-chloro-3-fluoro-2-(fluoromethyl)phenyl)picolinate]",45 to 59,45 to 59,0 to 29,0 to 29,0 to 29,0 to 29,0 to 29,0 to 29,0 to 29,0 to 29,0 to 29,0 to 29,0 to 29,0 to 29,0 to 29,0 to 29,95 to 100,95 to 100,95 to 100,95 to 100,"pest or weed control at 70 g/ha [2, 13]: 95 to 100%; pest or weed control at 140 g/ha [2, 13]: 95 to 100%; pest or weed control at 70 g/ha [2, 14]: 95 to 100%; pest or weed control at 140 g/ha [2, 14]: 95 to 100%; pest or weed control at 70 g/ha [2, 15]: 0 to 29%; pest or weed control at 140 g/ha [2, 15]: 0 to 29%; pest or weed control at 70 g/ha [2, 16]: 85 to 94%; pest or weed control at 140 g/ha [2, 16]: 85 to 94%; pest or weed control at 70 g/ha [2, 17]: 0 to 29%; pest or weed control at 140 g/ha [2, 17]: 0 to 29%"
"C=Cc1c(-c2cc(N)c(Cl)c(C(=O)OC)n2)ccc(Cl)c1F [Compound 79, methyl 4-amino-3-chloro-6-(4-chloro-3-fluoro-2-vinylphenyl)picolinate]",95 to 100,95 to 100,0 to 29,0 to 29,0 to 29,0 to 29,0 to 29,0 to 29,0 to 29,0 to 29,0 to 29,30 to 44,0 to 29,0 to 29,0 to 29,0 to 29,95 to 100,0 to 29,95 to 100,95 to 100,"pest or weed control at 70 g/ha [2, 13]: 95 to 100%; pest or weed control at 140 g/ha [2, 13]: 95 to 100%; pest or weed control at 70 g/ha [2, 14]: 95 to 100%; pest or weed control at 140 g/ha [2, 14]: 95 to 100%; pest or weed control at 70 g/ha [2, 15]: 0 to 29%; pest or weed control at 140 g/ha [2, 15]: 0 to 29%; pest or weed control at 70 g/ha [2, 16]: 85 to 94%; pest or weed control at 140 g/ha [2, 16]: 85 to 94%; pest or weed control at 70 g/ha [2, 17]: 0 to 29%; pest or weed control at 140 g/ha [2, 17]: 0 to 29%"
